Measurements from the NIST ThermoML archive (doi:10.1021/je050316s).
Where “and” joins values, the source holds several entries; their conditions need not be identical. Equal values may be shown once. Numbers after ± are expanded uncertainties.

Legend:
[1] = Liquid; for mass density: 101.33 kPa
[2] = refractive index (Na D-line) (dimensionless); conditions: 293.15 K; 101.33 kPa; Liquid; Standard Abbe refractometry

| mass density ([1]; 303.15 K) | SMILES | mass density ([1]; 293.15 K) | vapor or sublimation pressure ([1]; 333.15 K) | vapor or sublimation pressure ([1]; 363.15 K) | refractive index [2] |
| --- | --- | --- | --- | --- | --- |
| – | Cc1ccccc1 [toluene] | 866.78 ± 0.19 kg/m3 | 18.56 ± 0.56 kPa | 54.49 ± 0.72 kPa | 1.496 ± 0.0004 |
| 732.93 ± 0.36 kg/m3 | CCCCCCCCCCC [undecane] | 740.11 ± 0.28 kg/m3 and 740.11 ± 0.36 kg/m3 | – | – | 1.4162 ± 0.0004 |
